# Assay results as given in patent US11622970B2, “BCL-2 inhibitors and their use as pharmaceuticals” (PRELUDE THERAPEUTICS INCORPORATED, priority 2020, dated 2023).
# Molecular target: BCL-2 recombinant protein (Homo sapiens, UniProt P10415)
# Assay: Cell free Bcl-2:Bak affinity assay (Bcl-2 Bak), HTRF competition of FAM-Bak peptide
# Assay type: binding
# Settings: 10-concentration IC50 mode, 4 nM BCL-2 recombinant protein, 100 nM FAM-Bak, read-out: potency (IC50)
# Procedure, shortened: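 Compounds in 10-point 3-fold dilution preincubated 10 min at RT with 4 nM GST-BCL-2 (20 mM K phosphate pH 7.5, 50 mM NaCl, 1 mM EDTA, 0.005% Triton X-100), then 100 nM FAM-Bak 10 min, anti-GST-Tb added, 60 min RT dark. HTRF read; % inhibition vs DMSO and positive control, IC50 from curve fit.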
# Sequence of BCL-2 recombinant protein (P10415 whole entry): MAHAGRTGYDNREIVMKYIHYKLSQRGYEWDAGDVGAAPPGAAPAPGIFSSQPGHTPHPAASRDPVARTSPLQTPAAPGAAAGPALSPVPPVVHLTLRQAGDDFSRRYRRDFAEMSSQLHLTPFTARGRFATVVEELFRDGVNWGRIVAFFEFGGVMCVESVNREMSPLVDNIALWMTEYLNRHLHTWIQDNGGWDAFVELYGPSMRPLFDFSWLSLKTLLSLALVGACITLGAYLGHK
row,IC50 [nM],SMILES
1,10 to 100,"CC1(C)CCC(CN2CCN(c3ccc(S(=O)(=O)NC(=O)c4ccc(Cl)c(Cl)n4)c(Oc4cnc5[nH]ccc5c4)c3)CC2)=C(c2ccc(Cl)cc2)C1 [Example 68, 5,6-Dichloro-N-[4-[4-[[2-(4-chlorophenyl)-4,4-dimethylcyclohexen-1-yl]methyl]piperazin-1-yl]-2-(1H-pyrrolo[2,3-b]pyridin-5-yloxy)phenyl]sulfonylpyridine-2-carboxamide]"
2,10 to 100,"Cc1nc(C(=O)NS(=O)(=O)c2ccc(N3CCN(CC4=C(c5ccc(Cl)cc5)CC(C)(C)CC4)CC3)cc2Oc2cnc3[nH]ccc3c2)ccc1F [Example 69, N-[4-[4-[[2-(4-chlorophenyl)-4,4-dimethylcyclohexen-1-yl]methyl]piperazin-1-yl]-2-(1H-pyrrolo[2,3-b]pyridin-5-yloxy)phenyl]sulfonyl-5-fluoro-6-methylpyridine-2-carboxamide]"
3,10 to 100,"Cc1nc(C(=O)NS(=O)(=O)c2ccc(N3CCN(CC4=C(c5ccc(Cl)cc5)CC(C)(C)CC4)CC3)cc2Oc2cnc3[nH]ccc3c2)ccc1[N+](=O)[O-] [Example 70, N-[4-[4-[[2-(4-chlorophenyl)-4,4-dimethylcyclohexen-1-yl]methyl]piperazin-1-yl]-2-(1H-pyrrolo[2,3-b]pyridin-5-yloxy)phenyl]sulfonyl-6-methyl-5-nitropyridine-2-carboxamide]"
4,100 to 1000,"CC1(C)CCC(CN2CCN(c3ccc(S(=O)(=O)NC(=O)c4ccc(Cl)c(C(F)(F)F)n4)c(Oc4cnc5[nH]ccc5c4)c3)CC2)=C(c2ccc(Cl)cc2)C1 [Example 71, 5-Chloro-N-[4-[4-[[2-(4-chlorophenyl)-4,4-dimethylcyclohexen-1-yl]methyl]piperazin-1-yl]-2-(1H-pyrrolo[2,3-b]pyridin-5-yloxy)phenyl]sulfonyl-6-(trifluoromethyl)pyridine-2-carboxamide]"
5,10 to 100,"CC1(C)CCC(CN2CCN(c3ccc(S(=O)(=O)NC(=O)c4ccc([N+](=O)[O-])c(Cl)n4)c(Oc4cnc5[nH]ccc5c4)c3)CC2)=C(c2ccc(Cl)cc2)C1 [Example 72, 6-Chloro-N-[4-[4-[[2-(4-chlorophenyl)-4,4-dimethylcyclohexen-1-yl]methyl]piperazin-1-yl]-2-(1H-pyrrolo[2,3-b]pyridin-5-yloxy)phenyl]sulfonyl-5-nitropyridine-2-carboxamide]"
6,10 to 100,"Cc1nc(C(=O)NS(=O)(=O)c2ccc(N3CCN(CC4=C(c5ccc(Cl)cc5)CC(C)(C)CC4)CC3)cc2Oc2cnc3[nH]ccc3c2)ccc1Cl [Example 73, N-[4-[4-[[2-(4-chlorophenyl)-4,4-dimethylcyclohexen-1-yl]methyl]piperazin-1-yl]-2-(1H-pyrrolo[2,3-b]pyridin-5-yloxy)phenyl]sulfonyl-5-chloro-6-methylpyridine-2-carboxamide]"
7,100 to 1000,"CC1(C)CCC(CN2CCN(c3ccc(S(=O)(=O)NC(=O)c4ccc5c(c4)CCCO5)c(Oc4cnc5[nH]ccc5c4)c3)CC2)=C(c2ccc(Cl)cc2)C1 [Example 74, N-[4-[4-[[2-(4-chlorophenyl)-4,4-dimethylcyclohexen-1-yl]methyl]piperazin-1-yl]-2-(1H-pyrrolo[2,3-b]pyridin-5-yloxy)phenyl]sulfonyl-3,4-dihydro-2H-chromene-6-carboxamide]"
8,100 to 1000,"CC1(C)CCC(CN2CCN(c3ccc(S(=O)(=O)NC(=O)c4cnc5sccc5c4)c(Oc4cnc5[nH]ccc5c4)c3)CC2)=C(c2ccc(Cl)cc2)C1 [Example 75, N-((2-((1H-pyrrolo[2,3-b]pyridin-5-yl)oxy)-4-(4-[[2-(4-Chlorophenyl)-4,4-dimethylcyclohexen-1-yl]methyl]piperazin-1-yl]phenyl)sulfonyl)thieno[2,3-b]pyridine-5-carboxamide]"
9,10 to 100,"Cc1cn(C)nc1C(=O)NS(=O)(=O)c1ccc(N2CCN(CC3=C(c4ccc(Cl)cc4)CC(C)(C)CC3)CC2)cc1Oc1cnc2[nH]ccc2c1 [Example 76, N-[4-[4-[[2-(4-chlorophenyl)-4,4-dimethylcyclohexen-1-yl]methyl]piperazin-1-yl]-2-(1H-pyrrolo[2,3-b]pyridin-5-yloxy)phenyl]sulfonyl-1,4-dimethylpyrazole-3-carboxamide]"
10,100 to 1000,"Cc1cc(C(=O)NS(=O)(=O)c2ccc(N3CCN(CC4=C(c5ccc(Cl)cc5)CC(C)(C)CC4)CC3)cc2Oc2cnc3[nH]ccc3c2)nn1C [Example 77, N-[4-[4-[[2-(4-chlorophenyl)-4,4-dimethylcyclohexen-1-yl]methyl]piperazin-1-yl]-2-(1H-pyrrolo[2,3-b]pyridin-5-yloxy)phenyl]sulfonyl-1,5-dimethylpyrazole-3-carboxamide]"
11,100 to 1000,"Cc1nn(C)c(C(=O)NS(=O)(=O)c2ccc(N3CCN(CC4=C(c5ccc(Cl)cc5)CC(C)(C)CC4)CC3)cc2Oc2cnc3[nH]ccc3c2)c1C [Example 78, N-[4-[4-[[2-(4-chlorophenyl)-4,4-dimethylcyclohexen-1-yl]methyl]piperazin-1-yl]-2-(1H-pyrrolo[2,3-b]pyridin-5-yloxy)phenyl]sulfonyl-2,4,5-trimethylpyrazole-3-carboxamide]"
12,10 to 100,"Cc1cc(C(=O)NS(=O)(=O)c2ccc(N3CCN(CC4=C(c5ccc(Cl)cc5)CC(C)(C)CC4)CC3)cc2Oc2cnc3[nH]ccc3c2)cc([N+](=O)[O-])c1 [Example 79, N-[4-[4-[[2-(4-chlorophenyl)-4,4-dimethylcyclohexen-1-yl]methyl]piperazin-1-yl]-2-(1H-pyrrolo[2,3-b]pyridin-5-yloxy)phenyl]sulfonyl-3-methyl-5-nitrobenzamide]"
13,< 10,"Cc1c(Cl)c(C(=O)NS(=O)(=O)c2ccc(N3CCN(CC4=C(c5ccc(Cl)cc5)CC(C)(C)CC4)CC3)cc2Oc2cnc3[nH]ccc3c2)cc([N+](=O)[O-])c1NCC1CCOCC1 [Example 80, 2-Chloro-N-[4-[4-[[2-(4-chlorophenyl)-4,4-dimethylcyclohexen-1-yl]methyl]piperazin-1-yl]-2-(1H-pyrrolo[2,3-b]pyridin-5-yloxy)phenyl]sulfonyl-3-methyl-5-nitro-4-(oxan-4-ylmethylamino)benzamide]"
14,< 10,"Cc1c(Cl)c(C(=O)NS(=O)(=O)c2ccc(N3CCN(CC4=C(c5ccc(Cl)cc5)CC(C)(C)CC4)CC3)cc2Oc2cnc3[nH]ccc3c2)cc([N+](=O)[O-])c1OCC1CCOCC1 [Example 81, 2-Chloro-N-[4-[4-[[2-(4-chlorophenyl)-4,4-dimethylcyclohexen-1-yl]methyl]piperazin-1-yl]-2-(1H-pyrrolo[2,3-b]pyridin-5-yloxy)phenyl]sulfonyl-3-methyl-5-nitro-4-(oxan-4-ylmethoxy)benzamide]"
15,< 10,CC1(C)CCC(CN2CCN(c3ccc(S(=O)(=O)NC(=O)c4ccc(COc5ccc(Cl)cc5)c([N+](=O)[O-])c4)c(Oc4cnc5[nH]ccc5c4)c3)CC2)=C(c2ccc(Cl)cc2)C1 [Example 82]
16,10 to 100,"CC1(C)CCC(CN2CCN(c3ccc(S(=O)(=O)NC(=O)c4ccc(COc5ccc(Cl)cc5)c(F)c4)c(Oc4cnc5[nH]ccc5c4)c3)CC2)=C(c2ccc(Cl)cc2)C1 [Example 83, 4-[(4-Chlorophenoxy)methyl]-N-[4-[4-[[2-(4-chlorophenyl)-4,4-dimethylcyclohexen-1-yl]methyl]piperazin-1-yl]-2-(1H-pyrrolo[2,3-b]pyridin-5-yloxy)phenyl]sulfonyl-3-fluorobenzamide]"
17,10 to 100,"COCc1cc(C(=O)NS(=O)(=O)c2ccc(N3CCN(CC4=C(c5ccc(Cl)cc5)CC(C)(C)CC4)CC3)cc2Oc2cnc3[nH]ccc3c2)cc([N+](=O)[O-])c1 [Example 85, N-[4-[4-[[2-(4-chlorophenyl)-4,4-dimethylcyclohexen-1-yl]methyl]piperazin-1-yl]-2-(1H-pyrrolo[2,3-b]pyridin-5-yloxy)phenyl]sulfonyl-3-(methoxymethyl)-5-nitrobenzamide]"
18,10 to 100,"CC1(C)CCC(CN2CCN(c3ccc(S(=O)(=O)NC(=O)c4cc(COc5ccc(Cl)cc5)cc([N+](=O)[O-])c4)c(Oc4cnc5[nH]ccc5c4)c3)CC2)=C(c2ccc(Cl)cc2)C1 [Example 86, 3-[(4-Chlorophenoxy)methyl]-N-[4-[4-[[2-(4-chlorophenyl)-4,4-dimethylcyclohexen-1-yl]methyl]piperazin-1-yl]-2-(1H-pyrrolo[2,3-b]pyridin-5-yloxy)phenyl]sulfonyl-5-nitrobenzamide]"
19,10 to 100,"COCc1ccc(C(=O)NS(=O)(=O)c2ccc(N3CCN(CC4=C(c5ccc(Cl)cc5)CC(C)(C)CC4)CC3)cc2Oc2cnc3[nH]ccc3c2)cc1[N+](=O)[O-] [Example 87, N-[4-[4-[[2-(4-chlorophenyl)-4,4-dimethylcyclohexen-1-yl]methyl]piperazin-1-yl]-2-(1H-pyrrolo[2,3-b]pyridin-5-yloxy)phenyl]sulfonyl-4-(methoxymethyl)-3-nitrobenzamide]"
20,< 10,"Cc1c(Cl)c(C(=O)NS(=O)(=O)c2ccc(N3CCN(CC4=C(c5ccc(Cl)cc5)CC(C)(C)CC4)CC3)cc2Oc2cnc3[nH]ccc3c2)cc([N+](=O)[O-])c1OCc1ccc(Cl)cc1 [Example 88, 2-Chloro-N-[4-[4-[[2-(4-chlorophenyl)-4,4-dimethylcyclohexen-1-yl]methyl]piperazin-1-yl]-2-(1H-pyrrolo[2,3-b]pyridin-5-yloxy)phenyl]sulfonyl-4-[(4-chlorophenyl)methoxy]-3-methyl-5-nitrobenzamide]"
21,100 to 1000,"CC1(C)CCC(CN2CCN(c3ccc(S(=O)(=O)NC(=O)c4ccc(COc5ccc(Cl)cc5)c(S(C)(=O)=O)c4)c(Oc4cnc5[nH]ccc5c4)c3)CC2)=C(c2ccc(Cl)cc2)C1 [Example 89, 4-[(4-chlorophenoxy)methyl]-N-[4-[4-[[2-(4-chlorophenyl)-4,4-dimethylcyclohexen-1-yl]methyl]piperazin-1-yl]-2-(1H-pyrrolo[2,3-b]pyridin-5-yloxy)phenyl]sulfonyl-3-methylsulfonylbenzamide]"
